Test results from patent US20230017045A1, “PYRIDINE AND PYRIMIDINE CARBOXYLATE HERBICIDES AND METHODS OF USE THEREOF” (Dow AgroSciences LLC, priority 2017, published 2023).
Read-outs that look alike come from different tables or passages of the source.

Tested on: test plant species
Assay: Post-emergent herbicidal activity test (greenhouse, foliar spray, visual growth reduction)
Type: in vivo
Conditions: post-emergence, 336 h, 140 g ai/ha
Protocol: Post-emergent Test: Seeds or nutlets of the desired test plant species were planted in Sun Gro Metro-Mix® 360 planting mixture, which typically has a pH of 6.0 to 6.8 and an organic matter content of about 30 percent, in plastic pots with a surface area of 64 square centimeters. In some aspects, to ensure good germination and healthy plants, a fungicide treatment and/or other chemical or physical treatment was applied. The plants were grown for 7-21 d in a greenhouse with an approximate 15 h photoperiod which was maintained at 23-29° C. during the day and 22-28° C. during the night. Nutrients and water were added on a regular basis and supplemental lighting was provided with overhead metal halide 1000-Watt lamps as necessary. Plants were used for testing when they reached the first or second true leaf stage. A weighed amount, determined by the highest rate to be tested, of each test compound was placed in a 25 mL glass vial and was dissolved in 4 mL of a 97:3 v/v mixture of acetone and DMSO to obtain concentrated stock solutions. […] The concentrated stock solutions obtained were diluted with 20 mL of an aqueous mixture containing acetone, water, isopropyl alcohol, DMSO, […] crop oil concentrate, and X-77 surfactant in a 48.5:39:10:1.5:1.0:0.02 v/v ratio to obtain spray solutions containing the application rate. Compound requirements are based upon a 12 mL application volume at a rate of 187 liters per hectare (L/ha). Formulated compounds were applied to the plant material with an overhead Mandel track sprayer equipped with […] nozzles calibrated to deliver 187 L/ha over an application area of 0.64 square meters at a spray height of 18 inches (43 cm) above the average plant canopy height. Control plants were sprayed in the same manner with the solvent blank. The treated plants and control plants were placed in a greenhouse as described above and watered by subirrigation to prevent wash-off of the test compounds. After 14 d, the condition of the test plants as compared with that of the nontreated and control plants was determined visually and scored on a scale of 0 to 100 percent where 0 corresponds to no injury and 100 corresponds to complete control. In the reporting of the results, Table A: Percent Growth Reduction Conversion Table was used.

[1] = ECHCG: barnyardgrass (Echinochloa crus-galli), 14 days after application, read-out: Visual Growth Reduction (%) 14 Days After Application, ECHCG
[2] = IPOHE: ivy-leaf morning glory (Ipomoea hederacea), 14 days after application, read-out: Visual Growth Reduction (%) 14 Days After Application, IPOHE
[3] = KCHSC: kochia (Bassia scoparia), 14 days after application, read-out: Visual Growth Reduction (%) 14 Days After Application, KCHSC
[4] = ORYSA: rice (Oryza sativa), 14 days after application, read-out: Visual Growth Reduction (%) 14 Days After Application, ORYSA
[5] = SETFA: giant foxtail (Setaria faberi), 14 days after application, read-out: Visual Growth Reduction (%) 14 Days After Application, SETFA
[6] = SORVU: grain sorghum (Sorghum vulgare), 14 days after application, read-out: Visual Growth Reduction (%) 14 Days After Application, SORVU
[7] = STEME: common chickweed (Stellaria media), 14 days after application, read-out: Visual Growth Reduction (%) 14 Days After Application, STEME
[8] = TRZAS: wheat, spring (Triticum aestivum), 14 days after application, read-out: Visual Growth Reduction (%) 14 Days After Application, TRZAS
[9] = blackgrass (Alopecurus myosuroides), 14 Days After Application, read-out: Visual Growth Reduction (%) ALOMY
[10] = canada thistle (Cirsium arvense), 14 Days After Application, read-out: Visual Growth Reduction (%) CIRAR
[11] = crabgrass (Digitaria sanguinalis), 14 Days After Application, read-out: Visual Growth Reduction (%) DIGSA
[12] = lambsquarters (Chenopodium album), 14 Days After Application, read-out: Visual Growth Reduction (%) CHEAL
[13] = redroot pigweed (Amaranthus retroflexus), 14 Days After Application, read-out: Visual Growth Reduction (%) AMARE
[14] = wild oat (Avena fatua), 14 Days After Application, read-out: Visual Growth Reduction (%) AVEFA
[15] = yellow nutsedge (Cyperus esculentus), 14 Days After Application, read-out: Visual Growth Reduction (%) CYPES
[16] = ALOMY: blackgrass (Alopecurus myosuroides), 14 days after application, read-out: Visual Growth Reduction (%) 14 Days After Application, ALOMY
[17] = AMARE: redroot pigweed (Amaranthus retroflexus), 14 days after application, read-out: Visual Growth Reduction (%) 14 Days After Application, AMARE
[18] = AVEFA: wild oat (Avena fatua), 14 days after application, read-out: Visual Growth Reduction (%) 14 Days After Application, AVEFA
[19] = CHEAL: lambsquarters (Chenopodium album), 14 days after application, read-out: Visual Growth Reduction (%) 14 Days After Application, CHEAL
[20] = CIRAR: canada thistle (Cirsium arvense), 14 days after application, read-out: Visual Growth Reduction (%) 14 Days After Application, CIRAR
[21] = CYPES: yellow nutsedge (Cyperus esculentus), 14 days after application, read-out: Visual Growth Reduction (%) 14 Days After Application, CYPES
[22] = DIGSA: crabgrass (Digitaria sanguinalis), 14 days after application, read-out: Visual Growth Reduction (%) 14 Days After Application, DIGSA

Row | Structure (SMILES) | pest or weed control at 140 g/ha [1] | pest or weed control at 140 g/ha [2] | pest or weed control at 140 g/ha [3] | pest or weed control at 140 g/ha [4] | pest or weed control at 140 g/ha [5] | pest or weed control at 140 g/ha [6] | pest or weed control at 140 g/ha [7] | pest or weed control at 140 g/ha [8] | pest or weed control at 140 g/ha [9] | pest or weed control at 140 g/ha [10] | pest or weed control at 140 g/ha [11] | pest or weed control at 140 g/ha [12] | pest or weed control at 140 g/ha [13] | pest or weed control at 140 g/ha [14] | pest or weed control at 140 g/ha [15] | pest or weed control at 140 g/ha [16] | pest or weed control at 140 g/ha [17] | pest or weed control at 140 g/ha [18] | pest or weed control at 140 g/ha [19] | pest or weed control at 140 g/ha [20] | other results
1 | COC(=O)c1nc(-c2ccc(OC(F)F)cc2F)c(F)cc1Cl [F221, Methyl 3-chloro-6-(4-(difluoromethoxy)-2-fluorophenyl)-5-fluoropicolinate] | 85 to 94% | 95 to 100% | 85 to 94% | 0 to 29% | 85 to 94% | 95 to 100% | 0 to 29% | 75 to 84% | 75 to 84% | 95 to 100% | 95 to 100% | 95 to 100% | 95 to 100% | 75 to 84% | 75 to 84% |  |  |  |  |  | 
2 | COC(=O)c1nc(-c2ccc(C(F)(F)F)nc2)ccc1Cl [F114, Methyl 5-chloro-6′-(trifluoromethyl)-[2,3′-bipyridine]-6-carboxylate] | 0 to 29% | 30 to 44% | 0 to 29% | 0 to 29% | 0 to 29% | 0 to 29% | 0 to 29% | 0 to 29% |  |  |  |  |  |  |  | 0 to 29% | 0 to 29% | 0 to 29% | 0 to 29% | 0 to 29% | pest or weed control at 140 g/ha [21]: 0 to 29%; pest or weed control at 140 g/ha [22]: 0 to 29%
3 | COC(=O)c1nc(-c2ccc3c(c2)C(F)(F)OC(F)(F)O3)c(F)cc1Cl [F204, Methyl 3-chloro-5-fluoro-6-(2,2,4,4-tetrafluoro-4H-benzo[d][1,3]dioxin-6-yl)picolinate] | 0 to 29% | 30 to 44% | 0 to 29% | 0 to 29% | 0 to 29% | 0 to 29% | 0 to 29% | 0 to 29% | 0 to 29% | 0 to 29% | 0 to 29% | 0 to 29% | 0 to 29% | 0 to 29% | 0 to 29% |  |  |  |  |  | 
4 | COCC(F)(F)c1ccc(-c2ccc(Cl)c(C(=O)O)n2)c(Cl)c1 [F179, 3-chloro-6-(2-chloro-4-(1,1-difluoro-2-methoxyethyl)phenyl)picolinic acid] | 0 to 29% | 95 to 100% | 60 to 74% | 0 to 29% | 0 to 29% | 0 to 29% | 0 to 29% | 0 to 29% |  |  |  |  |  |  |  | 0 to 29% | 60 to 74% | 0 to 29% | 0 to 29% | 0 to 29% | pest or weed control at 140 g/ha [21]: 0 to 29%; pest or weed control at 140 g/ha [22]: 0 to 29%
5 | COC(=O)c1nc(-c2ccccc2)c(F)cc1Cl [F219, Methyl 3-chloro-5-fluoro-6-phenylpicolinate] | 0 to 29% | 45 to 59% | 0 to 29% | 0 to 29% | 0 to 29% | 60 to 74% | 0 to 29% | 0 to 29% | 0 to 29% | 0 to 29% | 30 to 44% | 45 to 59% | 0 to 29% | 0 to 29% | 0 to 29% |  |  |  |  |  | 
6 | COC(=O)c1nc(-c2ccc3c(c2)C(F)(F)OC(F)(F)O3)ccc1Cl [F203, Methyl 3-chloro-6-(2,2,4,4-tetrafluoro-4H-benzo[d][1,3]dioxin-6-yl) picolinate] | 0 to 29% | 30 to 44% | 0 to 29% | 0 to 29% | 0 to 29% | 0 to 29% | 0 to 29% | 0 to 29% | 0 to 29% | 0 to 29% | 0 to 29% | 0 to 29% | 0 to 29% | 0 to 29% | 0 to 29% |  |  |  |  |  | 
7 | COC(=O)c1nc(-c2ccc(C(F)(F)F)nc2F)ccc1Cl [F167, Methyl 5-chloro-2′-fluoro-6′-(trifluoromethyl)-[2,3′-bipyridine]-6-carboxylate] | 0 to 29% | 60 to 74% | 30 to 44% | 0 to 29% | 60 to 74% | 75 to 84% | 0 to 29% | 0 to 29% |  |  |  |  |  |  |  | 0 to 29% | 60 to 74% | 0 to 29% | 75 to 84% | 0 to 29% | pest or weed control at 140 g/ha [21]: 0 to 29%
8 | COC(=O)c1nc(-c2ccc(C(F)(F)F)cc2Cl)cc(Cl)c1Cl [F108, methyl 3,4-dichloro-6-(2-chloro-4-(trifluoromethyl)phenyl)picolinate] | 0 to 29% | 30 to 44% | 0 to 29% | 0 to 29% | 0 to 29% | 0 to 29% |  | 0 to 29% |  |  |  |  |  |  |  | 0 to 29% | 0 to 29% | 0 to 29% | 0 to 29% | 0 to 29% | pest or weed control at 140 g/ha [21]: 0 to 29%; pest or weed control at 140 g/ha [22]: 0 to 29%
